Measurements: publication PMC7710685 (Frontiers in Neuroscience, 2020)
Several values for one entry are separate records, joined by “and”; a condition that tells them apart may be missing. Equal entries are not always repeated. Where two headings read alike, the source gives them in different places.

How the values were obtained:
[1] = biological target: T1, human α1β2γ1 GABAA receptors (Homo sapiens, UniProt P14867+P47870+Q8N1C3); settings: γ1 (α1β2γ1); for Modulation at 10 μM: 10 μM co-applied with GABA EC10, percentage potentiation of GABA EC10; for Emax (%): percent of current through GABA EC10, Hill fit, 0.1 nM-10 μM; for EC50: co-applied with GABA EC10; for Log(EC50): logarithm of EC50, mean ± SD
T1 sequence (Q8N1C3 36-465): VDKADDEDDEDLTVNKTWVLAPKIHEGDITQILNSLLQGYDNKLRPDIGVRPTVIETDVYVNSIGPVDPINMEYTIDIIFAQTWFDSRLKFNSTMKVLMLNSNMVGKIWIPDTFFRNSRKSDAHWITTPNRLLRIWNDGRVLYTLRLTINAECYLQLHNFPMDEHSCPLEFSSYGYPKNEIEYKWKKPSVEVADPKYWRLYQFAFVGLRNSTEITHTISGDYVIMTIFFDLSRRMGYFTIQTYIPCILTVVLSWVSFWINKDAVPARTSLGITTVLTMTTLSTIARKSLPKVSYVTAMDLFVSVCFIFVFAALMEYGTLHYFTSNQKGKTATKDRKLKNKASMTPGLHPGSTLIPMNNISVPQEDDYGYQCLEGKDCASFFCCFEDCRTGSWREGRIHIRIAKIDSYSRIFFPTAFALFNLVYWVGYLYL
T1 sequence (P47870 25-512 limits assumed): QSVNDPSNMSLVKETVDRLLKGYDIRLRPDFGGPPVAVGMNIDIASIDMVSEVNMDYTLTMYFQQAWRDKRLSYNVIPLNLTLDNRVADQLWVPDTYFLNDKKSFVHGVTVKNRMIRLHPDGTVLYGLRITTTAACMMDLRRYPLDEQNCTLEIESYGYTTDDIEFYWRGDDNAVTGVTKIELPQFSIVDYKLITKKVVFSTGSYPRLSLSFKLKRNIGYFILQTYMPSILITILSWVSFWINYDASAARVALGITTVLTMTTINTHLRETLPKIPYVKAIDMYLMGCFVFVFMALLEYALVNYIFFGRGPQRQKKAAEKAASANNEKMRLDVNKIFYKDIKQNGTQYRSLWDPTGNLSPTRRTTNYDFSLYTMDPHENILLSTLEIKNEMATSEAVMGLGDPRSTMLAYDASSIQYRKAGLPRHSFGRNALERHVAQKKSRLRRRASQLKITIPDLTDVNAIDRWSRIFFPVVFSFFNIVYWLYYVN
T1 sequence (P14867 28-456): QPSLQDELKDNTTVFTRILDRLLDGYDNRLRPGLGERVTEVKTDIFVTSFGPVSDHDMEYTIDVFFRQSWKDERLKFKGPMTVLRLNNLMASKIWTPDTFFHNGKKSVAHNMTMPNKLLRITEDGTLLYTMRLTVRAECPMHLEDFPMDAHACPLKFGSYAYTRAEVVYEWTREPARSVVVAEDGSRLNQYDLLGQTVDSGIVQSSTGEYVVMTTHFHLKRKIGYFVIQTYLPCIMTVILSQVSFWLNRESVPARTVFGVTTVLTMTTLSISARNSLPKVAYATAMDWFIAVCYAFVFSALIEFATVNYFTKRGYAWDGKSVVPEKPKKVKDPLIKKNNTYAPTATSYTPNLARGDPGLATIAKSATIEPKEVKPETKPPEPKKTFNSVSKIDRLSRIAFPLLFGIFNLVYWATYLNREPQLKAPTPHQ
Text: (§1) To ensure homogenous receptor populations and subunit orientation, we used concatenated receptors expressed in X. laevis oocytes. Concatenated pentameric constructs were created using the subunits γx-β2-α1-β2-α1 (where x = 1, 2, or 3). […] Briefly, natural restriction sites BamHI, HindIII, and KpnI restriction sites in the γ1, 2, 3, β2, or α1 subunits were removed through silent mutations using site-directed mutagenesis. […] Inserted linker lengths are as follows γx-13a-β2-27a-α1-18a-β2-27a-α1.
(§2) The collection and preparation of oocytes were done as previously described ([Ahring et al., 2016]). […] Oocytes were prepared by slicing lobes into small pieces and defolliculated through collagenase A treatment. Stage V and VI oocytes were injected with around 50 nL of 0.5 ng/nL RNA for each concatenated construct or α1/β2 subunits in a 1:1 ratio and incubated for 3–4 days at 18°C in modified Barth’s solution (96 mM NaCl, 2.0 mM KCl, 1 mM MgCl2, 1.8 mM CaCl2, 5 mM HEPES, 2.5 mM sodium pyruvate, 0.5 mM theophylline, and 100 μg/mL gentamicin; pH 7.4).
(§3) This technique was performed as previously described ([Ahring et al., 2016], [2018]; [Liao et al., 2019]). Briefly, oocytes sit in a custom-built chamber and continuously perfused with a saline solution, ‘ND96’ (96 mM NaCl, 2 mM KCl, 1 mM MgCl2, 1.8 mM CaCl2, and 10 mM HEPES; pH 7.4). Glass electrode pipettes were filled with 3 M KCl, with resistances ranging from 0.4 to 2 MΩ. Oocytes were clamped to −60 mV using an Axon GeneClamp 500B amplifier (Molecular Devices). Currents were filtered at 20 Hz with a four-pole low pass Bessel filter (Axon GeneClamp 500 B) and digitized by a Digidata 1440A (Molecular Devices). Sampling was taken at 200 Hz and analyzed using pClamp 10.2 suite (Molecular Devices).
(§4) Each recording day, a fresh stock was used to prepare dilutions. The maximal concentration of DMSO in final drug ND96 solutions was <0.1%.
(§5) The drug modulation experiments were done as follows.
(§6) The final dataset was from a minimum of four experiments and a minimum of two different X. laevis donors. Raw traces were analyzed using pClamp 10.2. Episodic traces for each application were overlaid and the baseline was subtracted. Peak current amplitude was quantified by measuring maximum inward current for each response. Peak current amplitudes (I) were fitted to the Hill equation and normalized to the maximal fitted response (Imax). […] The Emax response and EC50 values were calculated by using non-linear regression to fit the data to the Hill equation in a monophasic model with three variables (top, bottom, EC50) using GraphPad Prism 8. Efficacy at infinitely low compound concentration was set to 0, and the slope was constrained to 1. Means are reported ± one SD.

[2] = biological target: T2, human α1β2γ2 GABAA receptors (Homo sapiens, UniProt P14867+P18507+P47870); settings: γ2 (α1β2γ2); for Modulation at 10 μM: 10 μM co-applied with GABA EC10, percentage potentiation of GABA EC10; for Emax (%): percent of current through GABA EC10, Hill fit
T2 sequence (P18507 40-475, one chain of several): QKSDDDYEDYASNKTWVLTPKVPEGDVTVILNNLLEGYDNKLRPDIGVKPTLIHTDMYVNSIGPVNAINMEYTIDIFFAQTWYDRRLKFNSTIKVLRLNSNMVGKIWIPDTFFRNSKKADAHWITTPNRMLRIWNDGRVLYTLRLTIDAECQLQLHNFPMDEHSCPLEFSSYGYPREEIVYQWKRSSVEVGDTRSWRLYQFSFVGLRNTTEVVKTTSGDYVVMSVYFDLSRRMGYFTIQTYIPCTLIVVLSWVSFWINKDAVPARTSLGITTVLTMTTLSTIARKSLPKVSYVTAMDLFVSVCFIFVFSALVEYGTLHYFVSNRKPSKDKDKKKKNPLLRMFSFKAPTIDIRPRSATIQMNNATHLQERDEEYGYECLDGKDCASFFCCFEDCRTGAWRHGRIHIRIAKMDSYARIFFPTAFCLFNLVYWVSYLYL
Text: as §1, §2, §3, §4, §5, §6

[3] = biological target: T3, human α1β2γ3 GABAA receptors (Homo sapiens, UniProt P14867+P47870+Q99928); settings: for Modulation at 10 μM: 10 μM co-applied with GABA EC10, percentage potentiation of GABA EC10; for Emax (%): percent of current through GABA EC10, Hill fit; for fold greater potency at γ3 receptors compared with γ2: EC50 α1β2γ2 vs α1β2γ3
T3 sequence (Q99928 18-467): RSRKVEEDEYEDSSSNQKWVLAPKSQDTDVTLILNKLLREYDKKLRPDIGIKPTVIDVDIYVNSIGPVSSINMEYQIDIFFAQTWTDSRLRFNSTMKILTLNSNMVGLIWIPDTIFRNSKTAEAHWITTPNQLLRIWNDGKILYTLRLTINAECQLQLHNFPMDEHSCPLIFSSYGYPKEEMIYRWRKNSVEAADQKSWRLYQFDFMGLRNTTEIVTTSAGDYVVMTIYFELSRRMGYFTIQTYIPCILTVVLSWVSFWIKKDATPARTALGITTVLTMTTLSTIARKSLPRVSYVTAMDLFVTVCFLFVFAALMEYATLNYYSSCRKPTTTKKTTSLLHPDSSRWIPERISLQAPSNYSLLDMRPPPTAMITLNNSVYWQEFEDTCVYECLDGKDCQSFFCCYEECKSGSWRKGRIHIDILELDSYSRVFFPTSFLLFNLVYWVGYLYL
T3 sequence (P47870 25-512 limits assumed): T1 sequence (P47870 25-512 limits assumed)
T3 sequence (P14867 28-456): T1 sequence (P14867 28-456)
Text: as §1, §2, §3, §4, §5, §6

γ3 GABAA receptors = settings: 1999, cited from earlier work; for binding affinity with γ3 compared with γ2: competitive binding using Ro15-4513, ref Dämgen and Lüddens
α1βγ1 receptors [4] = settings: HEK293 cells expressing α1βγ1, cited from earlier work
α1βγ1 receptors [5] = test system: α1βγ1 receptors; design: method as in Khom et al., 2006; settings: α1βγ1 in X. laevis oocytes, ref Khom et al., 2006, cited from earlier work
α2βγ1 receptors = test system: α2βγ1 receptors; design: method as in Wafford et al., 1993; Mckernan et al., 1995; settings: α2βγ1 in X. laevis oocytes, ref Wafford et al., 1993, Mckernan et al., 1995, cited from earlier work
γ1-containing receptors = test system: γ1-containing receptors; design: method as in Benke et al., 1996; settings: ref Benke et al., 1996; cited from earlier work
[6] = biological target: T2, human α1β2γ2 GABAA receptors; experiment: cell-based; settings: for Emax: γ2 (α1β2γ2), percent of current through GABA EC10, Hill fit; for EC50: EC50, γ2 (α1β2γ2), co-applied with GABA EC10
Text: as §1, §2, §3, §4, §5, §6

[7] = biological target: T1, human α1β2γ1 GABAA receptors; settings: γ1; GABA concentration-response
Text: (§7) To ensure homogenous receptor populations and subunit orientation, we used concatenated receptors expressed in X. laevis oocytes. Concatenated pentameric constructs were created using the subunits γx-β2-α1-β2-α1 (where x = 1, 2, or 3).
(§8) The collection and preparation of oocytes were done as previously described ([Ahring et al., 2016]). Briefly, ovarian lobes were removed from anesthetized adult X. laevis following protocol approval by the Animal Ethics Committee of The University of Sydney (AEC No. 2016/970) in accordance with the National Health and Medical Research Council of Australia code for the care and use of animals. […]
(§9) This technique was performed as previously described ([Ahring et al., 2016], [2018]; [Liao et al., 2019]). […] Sampling was taken at 200 Hz and analyzed using pClamp 10.2 suite (Molecular Devices).
(§10) Applications lasted for 30 s and were followed by 2–5 min of washout. EC50 and EC10 were calculated from this curve.
(§11) The final dataset was from a minimum of four experiments and a minimum of two different X. laevis donors. Raw traces were analyzed using pClamp 10.2. […] Peak current amplitude was quantified by measuring maximum inward current for each response. […] The Emax response and EC50 values were calculated by using non-linear regression to fit the data to the Hill equation in a monophasic model with three variables (top, bottom, EC50) using GraphPad Prism 8. […]

[8] = biological target: T2, human α1β2γ2 GABAA receptors; experiment: GABA concentration-response, concatenated α1β2γ2 receptors in oocytes; assay type: cell-based; design: expressed in transfected cells; host or cells: Xenopus laevis oocytes injected with cRNA of the concatenated construct; settings: γ2
Text: as §7, §8, §9, §10, §11

α1β2γ3 receptors = test system: α1β2γ3 receptors; design: method as in Davies et al., 2000; settings: ref Davies et al., 2000; cited from earlier work
[9] = biological target: recombinant α1β2γ3 GABAA receptors; design: method as in Lippa et al., 2005; settings: ref Lippa et al., 2005, cited from earlier work
[10] = biological target: T3, human α1β2γ3 GABAA receptors; experiment: cell-based; settings: for EC50: EC50, γ3 (α1β2γ3), co-applied with GABA EC10
Text: as §1, §2, §3, §4, §5, §6

α2β2γ3 receptor [11] = experiment: Literature: efficacy and potency of zaleplon at α2β2γ3 receptor; assay type: cell-based; settings: literature α2β2γ3 EC50 vs this paper's α1β2γ3 EC50
[12] = biological target: T4, human binary α1β2 GABAA receptors (Homo sapiens, UniProt P14867+P47870); settings: 10 μM co-applied with GABA EC10, percentage potentiation of GABA EC10
T4 sequence (P14867 28-456): T1 sequence (P14867 28-456)
T4 sequence (P47870 25-512 limits assumed): T1 sequence (P47870 25-512 limits assumed)
Experimental: as §2
This technique was performed as previously described ([Ahring et al., 2016], [2018]; [Liao et al., 2019]). Briefly, oocytes sit in a custom-built chamber and continuously perfused with a saline solution, ‘ND96’ (96 mM NaCl, 2 mM KCl, 1 mM MgCl2, 1.8 mM CaCl2, and 10 mM HEPES; pH 7.4). […] Sampling was taken at 200 Hz and analyzed using pClamp 10.2 suite (Molecular Devices). […]
as §11

α2β2γ3 receptor [13] = settings: earlier study, no reference given; cited from earlier work

SMILES	Modulation at 10 μM [1] [%]	Emax (%) [1]	Modulation at 10 μM [2] [%]	Modulation at 10 μM ([3]; γ3 (α1β2γ3)) [%]	Emax [6] [%]	Emax [10] [%]	EC50 [1]	Log(EC50) [1]	EC50 [6]	EC50 [10]	other results
Cc1ccc(-c2nc3ccc(C)cn3c2CC(=O)N(C)C)cc1 [Zolpidem, zolpidem]	15 ± 6	No fit	484 ± 124	101 ± 37	475 to 550	–	–	–	–	–	Modulation at 10 μM ([1]; listed as zolpidem): 15%; Emax (%) [2]: 487 ± 66%; Emax (%) ([3]; γ3 (α1β2γ3)): No fit; binding to the classical γ3 receptor benzodiazepine site (γ3 GABAA receptors; competition with flunitrazepam or Ro-154513, ref Herb et al., 1992, Lüddens et al., 1994, Tögel et al., Hadingham et al., 1995, Sieghart, Dämgen and Lüddens): no binding; EC50 (α1βγ1 receptors [4]; ref Esmaeili et al., 2009): ~200 nM; potentiation (α1βγ1 receptors [4]; ref Puia et al., 1991): 50–75%; maximum efficacy (α1βγ1 receptors [5]): ≤ 20%; maximum efficacy (α1βγ1 receptors [5]; listed as zolpidem): below 20%; maximum efficacy (α2βγ1 receptors): ≤ 20%; maximum efficacy (α2βγ1 receptors; listed as zolpidem): below 20%; binding (γ1-containing receptors): no binding
NCCCC(=O)O [GABA, γ-Aminobutyric-acid]	–	–	–	–	–	–	–	–	–	–	Hill slope [7]: 1.22 ± 0.32; Hill slope [8]: 1.19 ± 0.55
CN1CCN(C(=O)OC2c3nccnc3C(=O)N2c2ccc(Cl)cn2)CC1 (stereo not drawn) [zopiclone]	–	–	–	–	–	–	–	–	–	–	binding affinity with γ3 compared with γ2 (γ3 GABAA receptors): marginal reduction in binding affinity; efficacy and potency at α1β2γ3 compared with α1β2γ2 (α1β2γ3 receptors): comparable efficacy and potency
CN1C(=O)CN=C(c2ccccc2)c2cc(Cl)ccc21 [Diazepam, diazepam]	43 ± 6	No fit	272 ± 46	156 ± 35	284 ± 23	168 ± 24	–	–	–	–	Modulation at 10 μM ([1]; listed as diazepam): 40%; EC50 ([9]; recombinant α1β2γ3): 1950 nM; Emax α1β2γ2 vs. α1β2γ3 [9]: no reduction in Emax
CC(=O)N(C)c1cccc(-c2ccnc3c(C(=O)c4cccs4)cnn23)c1 [Indiplon, indiplon]	22 ± 7	No fit	238 ± 31	249 ± 14	231 ± 18	263 ± 18	No fit	No fit	10 nM and 13.1 nM	45 nM and 47.8 nM	fold greater potency for γ2 vs. γ3 (fold reduction in potency when γ3 replaces γ2) ([3]; EC50 α1β2γ3 vs α1β2γ2): ~4 fold
CN1CCN(C(=O)O[C@H]2c3nccnc3C(=O)N2c2ccc(Cl)cn2)CC1 [Eszopiclone, eszopiclone]	18 ± 19	No fit	349 ± 70	199 ± 26	356 ± 37	207 ± 20	No fit	No fit	301 nM	554 nM	Modulation at 10 μM ([1]; listed as eszopiclone): 20%; fold reduction in Emax when γ3 replaced γ2 ([3]; Emax α1β2γ2 vs α1β2γ3): 1.5 fold
CCN(C(C)=O)c1cccc(-c2ccnc3c(C#N)cnn23)c1 [Zaleplon, zaleplon]	126 ± 3	No fit	305 ± 59	262 ± 53	307 ± 34	277 ± 26	No fit	No fit	203 nM	56 nM	fold less potency at α2β2γ3 than seen on α1β2γ3 (α2β2γ3 receptor [11]): 10 fold; Modulation at 10 μM ([1]; listed as zaleplon): 125%; fold greater potency at γ3 receptors compared with γ2 [3]: ~4 fold; fold greater potency at γ3 receptors compared with γ2 ([3]; listed as zaleplon): four-fold increase in potency; Modulation at 10 μM, (I-Ic)/Ic [12]: 25%; EC50 (α2β2γ3 receptor [13]): ~500 nM; binding affinity with γ3 compared with γ2 (γ3 GABAA receptors): eightfold higher affinity
CCCN(CCC)C(=O)Cc1c(-c2ccc(Cl)cc2)nc2ccc(Cl)cn12 [Alpidem, alpidem]	40	No fit	542 ± 176	126 ± 16	–	–	No fit	No fit	500 nM and 502 nM	–	Emax (%) [2]: 512 ± 80%; Emax (%) ([2]; listed as alpidem): 475–550%; EC50 ([3]; γ3 (α1β2γ3), co-applied with GABA EC10): No fit; Log(EC50) ([3]; γ3 (α1β2γ3), logarithm of EC50, mean ± SD): No fit; Emax (%) ([3]; γ3 (α1β2γ3)): No fit
